These results are taken from patent US9688695B2, “Imidazothiadiazole and imidazopyrazine derivatives as protease activated receptor 4 (PAR4) inhibitors for treating platelet aggregation” (BRISTOL-MYERS SQUIBB COMPANY, priority 2012, dated 2017).

This assay deals with PAR4 (Homo sapiens (Human), UniProt Q96RI0). Briefly: FLIPR assay in PAR4-expressing HEK293 cells (PAR4 antagonist activity, calcium mobilization). The assay is classed as cell-based. The note with it: H-Ala-Phe(4-F)-Pro-Gly-Trp-Leu-Val-Lys-Asn-Gly-NH2-induced calcium mobilization. The method, boiled down: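 HEK293 EBNA cells stably expressing human PAR4 (also endogenous PAR1) preincubated 30 min at room temperature with compound in HBSS/10 mM HEPES, 0.67% DMSO final. PAR4 agonist peptide then added and intracellular calcium mobilization monitored by fluorescence.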
PAR4, sequence (Q96RI0 18-385): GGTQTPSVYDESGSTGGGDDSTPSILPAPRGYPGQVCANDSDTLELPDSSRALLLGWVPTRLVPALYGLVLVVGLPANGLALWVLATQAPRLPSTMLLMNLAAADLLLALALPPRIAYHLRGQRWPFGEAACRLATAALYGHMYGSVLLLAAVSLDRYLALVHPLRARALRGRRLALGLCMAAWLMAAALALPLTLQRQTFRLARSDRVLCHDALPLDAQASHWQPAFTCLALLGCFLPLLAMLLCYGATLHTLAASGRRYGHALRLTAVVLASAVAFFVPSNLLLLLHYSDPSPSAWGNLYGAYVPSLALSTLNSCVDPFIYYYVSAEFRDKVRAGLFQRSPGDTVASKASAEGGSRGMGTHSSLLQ
As for `COc1cc(OCc2csc(C3(O)CCCCC3)n2)c2cc(-c3cn4nc(OC)sc4n3)oc2c1` [Example 133, 1-(4-(((6-Methoxy-2-(2-methoxyimidazo[2,1-b][1,3,4]thiadiazol-6-yl)benzofuran-4-yl)oxy)methyl)thiazol-2-yl)cyclohexanol], the half-maximal effective concentration (EC50) amounted to 0.37 nM. Next, `COc1cc(OCc2csc(C3(F)CCCCC3)n2)c2cc(-c3cn4nc(OC)sc4n3)oc2c1` [Example 134, 6-(4-((2-(1-Fluorocyclohexyl)thiazol-4-yl)methoxy)-6-methoxybenzofuran-2-yl)-2-methoxyimidazo[2,1-b][1,3,4]thiadiazole]: 1.2 nM. Next, `COc1cc(OCc2csc(C3(O)CCC(F)(F)CC3)n2)c2cc(-c3cn4nc(OC)sc4n3)oc2c1` [Example 135, 4,4-Difluoro-1-(4-(((6-methoxy-2-(2-methoxyimidazo[2,1-b][1,3,4]thiadiazol-6-yl)benzofuran-4-yl)oxy)methyl)thiazol-2-yl)cyclohexanol]: 0.79 nM; `COc1cc(OCc2csc(C3(F)CCC(F)(F)CC3)n2)c2cc(-c3cn4nc(OC)sc4n3)oc2c1` [Example 136, 2-Methoxy-6-(6-methoxy-4-((2-(1,4,4-trifluorocyclohexyl)thiazol-4-yl)methoxy)benzofuran-2-yl)imidazo[2,1-b][1,3,4]thiadiazole]: 1.2 nM; `CCC(O)(c1nc(COc2cc(OC)cc3oc(-c4cn5nc(OC)sc5n4)cc23)cs1)C(F)(F)F` (stereo not drawn) [Example 138]: 0.82 nM.

In the case of `CCC(O)(CC)c1nc(COc2cc(OC)cc3oc(-c4cn5nc(OC)sc5n4)cc23)cs1` [Example 140], the EC50 was 0.67 nM.

As to `COc1cc(OCc2csc(C(C)(O)C3CCCCC3)n2)c2cc(-c3cn4nc(OC)sc4n3)oc2c1` (stereo not drawn) [Example 142], the EC50 was determined as 0.31 nM. Next, `COc1cc(OCc2csc(C(C)(O)C(F)(F)F)n2)c2cc(-c3cn4nc(OC)sc4n3)oc2c1` (stereo not drawn) [Example 143]: 0.39 nM; `COc1cc(OCc2csc(C(O)(C3CC3)C3CC3)n2)c2cc(-c3cn4nc(OC)sc4n3)oc2c1` [Example 144]: 0.26 nM; `COc1cc(OCc2csc(C(O)(C3CCCCC3)C(F)(F)F)n2)c2cc(-c3cn4nc(OC)sc4n3)oc2c1` (stereo not drawn) [Example 146]: 0.73 nM. The value for `COCCC(C)(F)c1nc(COc2cc(OC)cc3oc(-c4cn5nc(OC)sc5n4)cc23)cs1` (stereo not drawn) [Example 147] was 0.96 nM; that for `COc1cc(OCc2csc(C3=CCC(C(=O)OC(C)(C)C)CC3)n2)c2cc(-c3cn4nc(OC)sc4n3)oc2c1` (stereo not drawn) [Example 148, tert-Butyl 4-(4-(((6-methoxy-2-(2-methoxyimidazo[2,1-b][1,3,4]thiadiazol-6-yl)benzofuran-4-yl)oxy)methyl)thiazol-2-yl)cyclohex-3-enecarboxylate] was 0.37 nM; that for `COc1cc(OCc2csc(C3(O)CCC(C(=O)OC(C)(C)C)CC3)n2)c2cc(-c3cn4nc(OC)sc4n3)oc2c1` (stereo not drawn) [Example 149, tert-Butyl 4-hydroxy-4-(4-(((6-methoxy-2-(2-methoxyimidazo[2,1-b][1,3,4]thiadiazol-6-yl)benzofuran-4-yl)oxy)methyl)thiazol-2-yl)cyclohexanecarboxylate] was 4.1 nM. Next, `COc1cc(OCc2csc(C3(O)CCC(C(=O)O)CC3)n2)c2cc(-c3cn4nc(OC)sc4n3)oc2c1` (stereo not drawn) [Example 150, 4-Hydroxy-4-(4-(((6-methoxy-2-(2-methoxyimidazo[2,1-b][1,3,4]thiadiazol-6-yl)benzofuran-4-yl)oxy)methyl)thiazol-2-yl)cyclohexanecarboxylic acid]: 0.92 nM. `COc1cc(OCc2csc(C3(c4ccc(Br)cc4)CCOCC3)n2)c2cc(-c3cn4nc(OC)sc4n3)oc2c1` [Example 153, 6-(4-((2-(4-(4-Bromophenyl)tetrahydro-2H-pyran-4-yl)thiazol-4-yl)methoxy)-6-methoxybenzofuran-2-yl)-2-methoxyimidazo[2,1-b][1,3,4]thiadiazole]: the EC50 turned out to be 1.7 nM.
